In patent US20260071187A1, “MOLECULARLY CLEAVABLE BIOINK FORMULATION” (THE BRIGHAM AND WOMEN'S HOSPITAL, INC., priority 2022, published 2026):

Legend:
NMDA receptor = assay: MEA recording with pharmacological intervention (D-APV); type: cell-based, human; conditions: D-APV 50 μM (FIG. 8g legend), Hase-1000 samples at week 4, vs DMSO
Procedure: MEA recording of 3D-bioprinted mini-brains was performed from week 1 to week 4 after differentiation (day 10 to day 31 after digestion). The samples containing SNaPs were plated on Geltrex-coated 12-well MEA plates (Axion Biosystems, USA) in the differentiation medium. The samples were fed 2-3 times a week with partial medium change. Neuronal activities were measured every week using the Maestro 12-well MEA plate system (Axion Biosystems) for 5 min. After 4 weeks of culture in MEA plate, synaptic contents were tested using pharmacological inhibitors of neurotransmitter receptors. […] The samples were incubated for 5-10 min, and neuronal activities were assessed again for 5 min. All the MEA data were analyzed using the Axion Integrated Studio 2.4.2 and the Neural Metric Tool (Axion Biosystems).

AMPA receptor = assay: MEA recording with pharmacological intervention (NBQX); type: cell-based, human; conditions: NBQX 10 μM, Hase-1000 samples at week 4, vs DMSO
Procedure: MEA recording of 3D-bioprinted mini-brains was performed from week 1 to week 4 after differentiation (day 10 to day 31 after digestion). The samples containing SNaPs were plated on Geltrex-coated 12-well MEA plates (Axion Biosystems, USA) in the differentiation medium. The samples were fed 2-3 times a week with partial medium change. Neuronal activities were measured every week using the Maestro 12-well MEA plate system (Axion Biosystems) for 5 min. After 4 weeks of culture in MEA plate, synaptic contents were tested using pharmacological inhibitors of neurotransmitter receptors. Specifically, neuronal activity was measured for 5 min by adding DMSO control before adding 10 μM of NBQX (Abcam) or 10 μM of D-APV (Abcam). The samples were incubated for 5-10 min, and neuronal activities were assessed again for 5 min. All the MEA data were analyzed using the Axion Integrated Studio 2.4.2 and the Neural Metric Tool (Axion Biosystems).

How did the burst frequency (NMDA receptor) turn out when `N[C@H](CCCP(=O)(O)O)C(=O)O` [D-APV, D-2-amino-5-phosphonovaleric acid] was run?
The burst frequency was “significantly reduced”.

What about the firing (NMDA receptor) of the same compound?
The firing was “significantly reduced”.

What does the source list for `NS(=O)(=O)c1cccc2c1c([N+](=O)[O-])cc1nc(O)c(O)nc12` [NBQX, 2,3-dihydroxy-6-nitro-7-sulfamoyl-benzo(F)quinoxaline]?
burst frequency (AMPA receptor): significantly reduced; mean firing rate (AMPA receptor): significantly reduced
